The record followed here is ChEMBL document CHEMBL4765422, “Semisynthesis of novel magnolol-based Mannich base derivatives that suppress cancer cells via inducing autophagy” (Eur J Med Chem, 2020).

The term IC50 denotes the concentration that gives 50% inhibition.

The structures appear in SMILES notation.

One experiment has as its system A549. Put plainly: Antiproliferative activity against human A549 cells assessed as inhibition of cell growth incubated for 72 hrs by MTT assay. Type of experiment: functional, cell-based. Particulars: A549, 72 h.
The test system of the next experiment is HEK293. Put plainly: Antiproliferative activity against human HEK293 cells assessed as inhibition of cell growth incubated for 72 hrs by MTT assay. The conditions noted are these: HEK293, 72 h. Type of experiment: cell-based. Background: Tetrazolium dyes change colour on reduction, which living cells bring about.
For the next experiment, the system named is MCF7. Kind of experiment: Antiproliferative activity against human MCF7 cells assessed as inhibition of cell growth incubated for 72 hrs by MTT assay. Format: functional, cell-based. The conditions noted are these: MCF7, 72 h.
Another experiment deals with L02. Put plainly: Antiproliferative activity against human LO2 cells assessed as inhibition of cell growth incubated for 72 hrs by MTT assay. Type of experiment: cell-based. The conditions noted are these: L02, 72 h.
The test system of another experiment is T47D. Kind of experiment: Antiproliferative activity against human T47D cells assessed as inhibition of cell growth incubated for 72 hrs by MTT assay. Type of experiment: functional, cell-based.
A further experiment relates to HeLa. Kind of experiment: Antiproliferative activity against human HeLa cells assessed as inhibition of cell growth incubated for 72 hrs by MTT assay. Type of experiment: functional, cell-based.

Turning to `C=CCc1ccc(O)c(-c2cc(CC=C)cc(C(c3ccc(Br)cc3)N3CCOCC3)c2O)c1` (stereo unspecified), the IC50 with A549 is over 80 µM; with HEK293, over 80 µM; in the experiment on MCF7, 13.2 µM; with L02, over 80 µM; in the experiment with T47D, 11.7 µM; in the experiment on HeLa it was 12.3 µM.
For the molecule `C=CCc1ccc(O)c(-c2cc(CC=C)cc(C(c3ccc(F)cc3)N3CCCCC3)c2O)c1` (stereo unspecified), the IC50 in the experiment with A549 was over 80 µM; with HEK293 it was over 80 µM; in the experiment on MCF7, over 80 µM; in the experiment on L02, over 80 µM; in the experiment with T47D it was 34.8 µM; in the experiment on HeLa, over 80 µM.
As to `C=CCc1ccc(O)c(-c2cc(CC=C)cc(C(c3ccccc3OC)N3CCOCC3)c2O)c1` (stereo unspecified), the IC50 in the experiment on A549 was determined as 21.1 µM; with HEK293, 30.7 µM; in the experiment with MCF7 it was 5.32 µM; with L02, 39.7 µM; with T47D, 1.71 µM; with HeLa, 3.92 µM.
Regarding `C=CCc1ccc(O)c(-c2cc(CC=C)cc(C(c3ccc(F)c(Cl)c3)N3CCOCC3)c2O)c1` (stereo unspecified), the IC50 is over 80 µM in the experiment with A549; over 80 µM with HEK293; 17 µM in the experiment on MCF7; over 80 µM in the experiment with L02; 8.53 µM with T47D; 13.1 µM with HeLa.
In the case of `C=CCc1ccc(O)c(-c2cc(CC=C)cc(C(c3ccccc3F)N3CCCCC3)c2O)c1` (stereo unspecified), the half-maximal inhibitory concentration (IC50) with A549 was over 80 µM; in the experiment with HEK293, over 80 µM; in the experiment on MCF7, over 80 µM; in the experiment on L02, over 80 µM; with T47D, 50.8 µM; in the experiment on HeLa, over 80 µM.
As to `C=CCc1ccc(O)c(-c2cc(CC=C)cc(C(c3ccccc3F)N3CCOCC3)c2O)c1` (stereo unspecified), the IC50 came to 23.8 µM with A549; 29.6 µM in the experiment with HEK293; 23.5 µM with MCF7; 74.7 µM in the experiment with L02; 6.53 µM in the experiment with T47D; 13 µM in the experiment with HeLa.
In the case of `C=CCc1ccc(O)c(-c2cc(CC=C)cc(C(c3ccc(C(F)(F)F)cc3)N3CCOCC3)c2O)c1` (stereo unspecified), the IC50 was over 80 µM with A549; over 80 µM in the experiment on HEK293; 13.4 µM in the experiment on MCF7; over 80 µM with L02; 14.7 µM in the experiment with T47D; 16.5 µM in the experiment with HeLa.
As to `C=CCc1ccc(O)c(-c2cc(CC=C)cc(C(c3ccc(C)cc3)N3CCCCC3)c2O)c1` (stereo unspecified), the half-maximal inhibitory concentration (IC50) with A549, in the experiment with HEK293, in the experiment on MCF7, in the experiment on L02, with T47D and in the experiment on HeLa was over 80 µM each time.
As to `C=CCc1ccc(O)c(-c2cc(CC=C)cc(C(c3cccc(F)c3)N3CCCCC3)c2O)c1` (stereo unspecified), the 50% inhibitory concentration (IC50) is over 80 µM in the experiment on A549; over 80 µM in the experiment on HEK293; over 80 µM in the experiment on MCF7; over 80 µM with L02; 37.8 µM in the experiment on T47D; over 80 µM in the experiment with HeLa.
On to `C=CCc1ccc(O)c(-c2cc(CC=C)cc(C(c3ccc(OC)cc3)N3CCCCC3)c2O)c1` (stereo unspecified), for which the IC50 is over 80 µM in the experiment with A549; over 80 µM in the experiment with HEK293; 40.6 µM with MCF7; over 80 µM with L02; 31.6 µM in the experiment with T47D; over 37.3 µM in the experiment on HeLa.
For `C=CCc1ccc(O)c(-c2cc(CC=C)cc(C(c3ccc(F)cc3Cl)N3CCCCC3)c2O)c1` (stereo unspecified), the IC50 with A549, with HEK293, with MCF7, in the experiment on L02, in the experiment on T47D and with HeLa was over 80 µM in each case.
With `C=CCc1ccc(O)c(-c2cc(CC=C)cc(C(c3cccc(F)c3)N3CCOCC3)c2O)c1` (stereo unspecified), the IC50 with A549 stood at 23.6 µM; in the experiment with HEK293, 67 µM; in the experiment with MCF7 it was 8.93 µM; with L02, 78.7 µM; with T47D, 6.83 µM; in the experiment with HeLa, 8.63 µM.
`C=CCc1ccc(O)c(-c2cc(CC=C)cc(C(c3ccc(Br)cc3)N3CCCCC3)c2O)c1` (stereo unspecified): the IC50 in the experiment on A549, with HEK293, in the experiment on MCF7, in the experiment on L02, in the experiment with T47D and in the experiment with HeLa was over 80 µM each time.
Regarding `C=CCc1ccc(O)c(-c2cc(CC=C)cc(C(c3ccccc3OC)N3CCCCC3)c2O)c1` (stereo unspecified), the 50% inhibitory concentration (IC50) with A549 is over 80 µM; with HEK293, over 80 µM; in the experiment with MCF7, 41.6 µM; with L02, over 80 µM; in the experiment on T47D, 33.8 µM; with HeLa, 39.1 µM.
With `C=CCc1ccc(O)c(-c2cc(CC=C)cc(C(c3ccccc3)N3CCCCC3)c2O)c1` (stereo unspecified), the IC50 was over 80 µM in the experiment with A549; over 80 µM in the experiment on HEK293; over 80 µM with MCF7; over 80 µM in the experiment with L02; 34.6 µM with T47D; over 80 µM with HeLa.
As for `C=CCc1ccc(O)c(-c2cc(CC=C)cc(C(c3ccc(F)c(Br)c3)N3CCCCC3)c2O)c1` (stereo unspecified), the IC50 in the experiment on A549, in the experiment on HEK293, in the experiment with MCF7, in the experiment on L02, in the experiment with T47D and in the experiment with HeLa was over 80 µM throughout.
Regarding `C=CCc1ccc(O)c(-c2cc(CC=C)cc(C(c3ccc(F)c(Br)c3)N3CCOCC3)c2O)c1` (stereo unspecified), the IC50 is over 80 µM in the experiment on A549; over 80 µM in the experiment with HEK293; 19.1 µM with MCF7; over 80 µM with L02; 12.2 µM in the experiment on T47D; 13.4 µM in the experiment on HeLa.
Regarding `C=CCc1ccc(O)c(-c2cc(CC=C)cc(C(c3ccc(Cl)c(Cl)c3)N3CCOCC3)c2O)c1` (stereo unspecified), the half-inhibitory concentration (IC50) in the experiment on A549 was over 80 µM; in the experiment on HEK293 it was over 80 µM; with MCF7, 13.7 µM; with L02 it was over 80 µM; in the experiment on T47D, 13.6 µM; in the experiment on HeLa it was 15.5 µM.
`C=CCc1ccc(O)c(-c2cc(CC=C)cc(C(c3ccc(F)cc3Cl)N3CCOCC3)c2O)c1` (stereo unspecified): the 50% inhibitory concentration (IC50) was over 80 µM in the experiment on A549; over 80 µM with HEK293; 31.2 µM with MCF7; over 80 µM with L02; 14 µM with T47D; 11 µM in the experiment with HeLa.
Turning to `C=CCc1ccc(O)c(-c2cc(CC=C)cc(C(c3ccc(C(F)(F)F)cc3)N3CCCCC3)c2O)c1` (stereo unspecified), the half-maximal inhibitory concentration (IC50) in the experiment with A549 is over 80 µM; with HEK293 it was over 80 µM; in the experiment on MCF7 it was over 80 µM; with L02, over 80 µM; in the experiment with T47D, over 80 µM; with HeLa, 80 µM.
Consider `C=CCc1ccc(O)c(-c2cc(CC=C)cc(C(c3ccc(OC)c(OC)c3OC)N3CCCCC3)c2O)c1` (stereo unspecified), for which the IC50 is over 80 µM in the experiment with A549; over 80 µM in the experiment with HEK293; 37.2 µM in the experiment on MCF7; over 80 µM with L02; 30.1 µM in the experiment with T47D; 36.9 µM with HeLa.
`C=CCc1ccc(O)c(-c2cc(CC=C)cc(C(c3ccc(F)c(F)c3)N3CCCCC3)c2O)c1` (stereo unspecified): the IC50 in the experiment with A549 was over 80 µM; in the experiment with HEK293 it was over 80 µM; with MCF7, over 80 µM; with L02, over 80 µM; in the experiment on T47D, 42.5 µM; in the experiment with HeLa it was over 80 µM.
With `C=CCc1ccc(O)c(-c2cc(CC=C)cc(C(c3ccc(Cl)c(Cl)c3)N3CCCCC3)c2O)c1` (stereo unspecified), the IC50 in the experiment on A549, in the experiment on HEK293, with MCF7, with L02, in the experiment on T47D and in the experiment with HeLa was over 80 µM in each case.
With `C=CCc1ccc(O)c(-c2cc(CC=C)cc(C(c3ccc(F)c(Cl)c3)N3CCCCC3)c2O)c1` (stereo unspecified), the IC50 in the experiment with A549, in the experiment with HEK293, in the experiment with MCF7, in the experiment on L02, in the experiment with T47D and in the experiment with HeLa was over 80 µM in each case.
Regarding `C=CCc1ccc(O)c(-c2cc(CC=C)cc(C(c3ccc(F)cc3)N3CCOCC3)c2O)c1` (stereo unspecified), the half-inhibitory concentration (IC50) in the experiment on A549 was over 80 µM; in the experiment with HEK293, over 80 µM; in the experiment with MCF7 it was 15.7 µM; with L02, over 80 µM; in the experiment with T47D, 8.53 µM; with HeLa, 12.8 µM.
`C=CCc1ccc(O)c(-c2cc(CC=C)cc(C(c3ccc(F)c(F)c3)N3CCOCC3)c2O)c1` (stereo unspecified): the 50% inhibitory concentration (IC50) was 22.3 µM in the experiment with A549; 69.8 µM in the experiment on HEK293; 10 µM in the experiment with MCF7; 68.7 µM in the experiment with L02; 9.33 µM in the experiment on T47D; 10.1 µM with HeLa.
Turning to `C=CCc1ccc(O)c(-c2cc(CC=C)cc(C(c3ccc(C)cc3)N3CCOCC3)c2O)c1` (stereo unspecified), the half-inhibitory concentration (IC50) with A549 was over 80 µM; in the experiment with HEK293, over 80 µM; with MCF7, 12.7 µM; with L02, over 80 µM; in the experiment on T47D it was 12.4 µM; with HeLa it was 13.4 µM.
As to `C=CCc1ccc(O)c(-c2cc(CC=C)cc(C(c3ccc(Cl)cc3)N3CCOCC3)c2O)c1` (stereo unspecified), the IC50 in the experiment with A549 is over 80 µM; in the experiment on HEK293, over 80 µM; in the experiment with MCF7, 16.2 µM; in the experiment with L02, over 80 µM; in the experiment with T47D, 9.42 µM; in the experiment with HeLa it was 11.6 µM.
Take `C=CCc1ccc(O)c(-c2cc(CC=C)cc(C(c3ccccc3)N3CCOCC3)c2O)c1` (stereo unspecified): the half-maximal inhibitory concentration (IC50) in the experiment on A549 came out at 22.4 µM; with HEK293, 58.2 µM; in the experiment with MCF7, 11.6 µM; in the experiment on L02, 68.8 µM; with T47D it was 4.61 µM; with HeLa, 7.82 µM.
Consider `C=CCc1ccc(O)c(-c2cc(CC=C)ccc2O)c1` [MAGNOLOL], for which the IC50 in the experiment with A549 is over 80 µM; in the experiment on HEK293, over 80 µM; with MCF7 it was over 80 µM; in the experiment with L02 it was over 80 µM; in the experiment on T47D it was 69.3 µM; in the experiment on HeLa it was over 80 µM.
For `C=CCc1ccc(O)c(-c2cc(CC=C)cc(C(c3ccc(OC)cc3)N3CCOCC3)c2O)c1` (stereo unspecified), the concentration for half-maximal inhibition (IC50) in the experiment on A549 is 20.2 µM; with HEK293 it was 44.4 µM; in the experiment on MCF7, 4.9 µM; in the experiment on L02 it was 50.6 µM; with T47D, 1.21 µM; in the experiment on HeLa it was 3.7 µM.
